Literature values, collected in patent US11576924B2, “Compounds for the prevention and treatment of diseases and the use thereof” (Galectin Sciences, LLC, priority 2017, dated 2023).

Experiments:
[1] = biological target: galectin 3 (Homo sapiens, UniProt P17931)
[2] = test system: lung fibrosis; conditions: pulmonary administration (intra-tracheal instillation or nebulizers)

Chain of galectin 3 (P17931 whole entry, species assumed): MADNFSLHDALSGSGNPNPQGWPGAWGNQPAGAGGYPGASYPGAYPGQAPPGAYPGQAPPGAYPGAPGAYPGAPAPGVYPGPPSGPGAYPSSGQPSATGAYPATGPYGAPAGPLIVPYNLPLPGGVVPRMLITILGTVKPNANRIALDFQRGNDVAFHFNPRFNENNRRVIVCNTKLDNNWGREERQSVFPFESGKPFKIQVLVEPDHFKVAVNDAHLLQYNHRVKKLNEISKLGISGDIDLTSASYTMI

OC[C@H]1O[C@@H](S[C@@H]2O[C@H](CO)[C@H](O)[C@H](n3cc(-c4cccc(F)c4)nn3)[C@H]2O)[C@H](O)[C@@H](n2cc(-c3cccc(F)c3)nn2)[C@H]1O [TD-139]
binding to galectin 3 [1]: bind to galectin 3
efficacy in mouse model of lung fibrosis [2]: effective in a mouse model of lung fibrosis
